Some targets named below: Aurora kinase B (Homo sapiens, UniProt Q96GD4); Deoxycytidine kinase (Homo sapiens, UniProt P27707); Ephrin type-A receptor 7 (Homo sapiens, UniProt Q15375).
Experiment [1] concerns the target Mitotic checkpoint serine/threonine-protein kinase BUB1 (Homo sapiens, UniProt O43683).
The target of experiment [2] is Serine/threonine-protein kinase 26 (Homo sapiens, UniProt Q9P289).
In experiment [3] the target is RAC-alpha serine/threonine-protein kinase (Homo sapiens, UniProt P31749).
The target of experiment [4] is Serine/threonine-protein kinase MRCK beta (Homo sapiens, UniProt Q9Y5S2).
Experiment [5] addresses T1, Cyclin-G-associated kinase (Homo sapiens, UniProt O14976).
T1 sequence (O14976 whole entry): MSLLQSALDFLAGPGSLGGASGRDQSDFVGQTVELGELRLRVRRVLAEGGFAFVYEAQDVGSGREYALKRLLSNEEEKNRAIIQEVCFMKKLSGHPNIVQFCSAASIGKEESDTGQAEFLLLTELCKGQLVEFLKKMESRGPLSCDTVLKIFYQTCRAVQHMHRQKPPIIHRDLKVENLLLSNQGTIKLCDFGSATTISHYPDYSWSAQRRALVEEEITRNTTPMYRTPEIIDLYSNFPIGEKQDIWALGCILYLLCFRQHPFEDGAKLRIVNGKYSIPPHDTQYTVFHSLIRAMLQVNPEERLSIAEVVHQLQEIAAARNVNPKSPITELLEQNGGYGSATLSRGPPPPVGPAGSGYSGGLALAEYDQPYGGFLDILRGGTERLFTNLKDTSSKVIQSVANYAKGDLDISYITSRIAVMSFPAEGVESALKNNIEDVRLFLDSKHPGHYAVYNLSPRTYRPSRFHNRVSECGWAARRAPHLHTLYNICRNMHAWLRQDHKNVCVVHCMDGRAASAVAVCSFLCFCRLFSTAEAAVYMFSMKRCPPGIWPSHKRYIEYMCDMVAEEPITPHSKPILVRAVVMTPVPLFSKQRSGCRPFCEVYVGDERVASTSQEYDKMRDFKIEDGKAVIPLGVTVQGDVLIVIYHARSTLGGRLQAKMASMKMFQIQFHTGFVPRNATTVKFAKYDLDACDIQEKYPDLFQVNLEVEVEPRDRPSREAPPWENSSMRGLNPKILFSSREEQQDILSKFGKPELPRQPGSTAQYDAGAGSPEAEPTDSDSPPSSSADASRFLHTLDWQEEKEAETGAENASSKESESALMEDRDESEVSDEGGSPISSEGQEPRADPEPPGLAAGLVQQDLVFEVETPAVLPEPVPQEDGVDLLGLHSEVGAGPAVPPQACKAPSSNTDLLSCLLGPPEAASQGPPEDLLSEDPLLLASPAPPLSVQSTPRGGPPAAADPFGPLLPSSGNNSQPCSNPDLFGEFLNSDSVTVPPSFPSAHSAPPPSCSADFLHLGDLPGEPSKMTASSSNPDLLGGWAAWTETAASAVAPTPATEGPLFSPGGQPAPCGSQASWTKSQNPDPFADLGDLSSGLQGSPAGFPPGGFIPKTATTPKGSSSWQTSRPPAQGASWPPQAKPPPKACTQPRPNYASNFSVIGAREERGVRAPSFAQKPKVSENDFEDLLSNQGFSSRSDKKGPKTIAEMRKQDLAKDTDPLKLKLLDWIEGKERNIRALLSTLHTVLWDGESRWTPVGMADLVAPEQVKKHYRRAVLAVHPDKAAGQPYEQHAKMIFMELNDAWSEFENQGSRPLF

In experiment [6] the target is Protein-tyrosine kinase 2-beta (Homo sapiens, UniProt Q14289).
For experiment [7], the target named is NADH dehydrogenase [ubiquinone] 1 alpha subcomplex subunit 13 (Homo sapiens, UniProt Q9P0J0).
In experiment [8] the target is Receptor-interacting serine/threonine-protein kinase 3 (Homo sapiens, UniProt Q9Y572).
Experiment [9] addresses T2, Dynamin-like GTPase OPA1, mitochondrial (Homo sapiens, UniProt O60313).
T2 sequence (O60313 whole entry): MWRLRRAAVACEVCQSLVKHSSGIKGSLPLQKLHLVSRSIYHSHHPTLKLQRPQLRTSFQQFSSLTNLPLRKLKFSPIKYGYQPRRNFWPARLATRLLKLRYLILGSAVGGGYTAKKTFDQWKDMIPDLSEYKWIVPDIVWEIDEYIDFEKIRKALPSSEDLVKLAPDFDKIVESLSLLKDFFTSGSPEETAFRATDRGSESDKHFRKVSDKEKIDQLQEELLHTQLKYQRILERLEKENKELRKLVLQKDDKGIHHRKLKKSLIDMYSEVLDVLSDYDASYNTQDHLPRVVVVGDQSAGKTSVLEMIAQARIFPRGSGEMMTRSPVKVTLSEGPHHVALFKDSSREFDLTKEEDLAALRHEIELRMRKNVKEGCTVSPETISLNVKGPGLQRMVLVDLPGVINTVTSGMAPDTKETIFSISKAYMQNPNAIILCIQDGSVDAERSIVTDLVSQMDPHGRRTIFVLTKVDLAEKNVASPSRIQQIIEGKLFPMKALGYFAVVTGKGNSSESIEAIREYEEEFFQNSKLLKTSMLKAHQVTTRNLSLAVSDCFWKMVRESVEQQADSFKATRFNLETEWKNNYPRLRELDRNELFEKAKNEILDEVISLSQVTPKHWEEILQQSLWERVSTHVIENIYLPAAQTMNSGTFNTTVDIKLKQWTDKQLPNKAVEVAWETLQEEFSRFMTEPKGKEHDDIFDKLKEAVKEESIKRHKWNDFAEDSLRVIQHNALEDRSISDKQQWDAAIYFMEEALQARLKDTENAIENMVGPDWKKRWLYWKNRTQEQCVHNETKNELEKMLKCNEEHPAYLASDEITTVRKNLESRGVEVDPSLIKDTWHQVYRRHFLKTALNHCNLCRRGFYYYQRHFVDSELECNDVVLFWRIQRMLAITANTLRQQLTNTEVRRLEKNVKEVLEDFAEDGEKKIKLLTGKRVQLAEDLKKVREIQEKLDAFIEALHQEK

For experiment [10], the target named is Tyrosine-protein kinase SYK (Homo sapiens, UniProt P43405).
Experiment [11] concerns the target Tyrosine-protein kinase JAK1 (Homo sapiens, UniProt P23458).
Experiment [12] has as its target Putative heat shock protein HSP 90-beta 2 (Homo sapiens, UniProt Q58FF8).

Active and inactive are the calls of the source. For most assays here, no stated cut-off is given here; in the data, actives have a measured Kd and inactives only a lower limit.

Sequence of Mitotic checkpoint serine/threonine-protein kinase BUB1 (O43683 whole entry): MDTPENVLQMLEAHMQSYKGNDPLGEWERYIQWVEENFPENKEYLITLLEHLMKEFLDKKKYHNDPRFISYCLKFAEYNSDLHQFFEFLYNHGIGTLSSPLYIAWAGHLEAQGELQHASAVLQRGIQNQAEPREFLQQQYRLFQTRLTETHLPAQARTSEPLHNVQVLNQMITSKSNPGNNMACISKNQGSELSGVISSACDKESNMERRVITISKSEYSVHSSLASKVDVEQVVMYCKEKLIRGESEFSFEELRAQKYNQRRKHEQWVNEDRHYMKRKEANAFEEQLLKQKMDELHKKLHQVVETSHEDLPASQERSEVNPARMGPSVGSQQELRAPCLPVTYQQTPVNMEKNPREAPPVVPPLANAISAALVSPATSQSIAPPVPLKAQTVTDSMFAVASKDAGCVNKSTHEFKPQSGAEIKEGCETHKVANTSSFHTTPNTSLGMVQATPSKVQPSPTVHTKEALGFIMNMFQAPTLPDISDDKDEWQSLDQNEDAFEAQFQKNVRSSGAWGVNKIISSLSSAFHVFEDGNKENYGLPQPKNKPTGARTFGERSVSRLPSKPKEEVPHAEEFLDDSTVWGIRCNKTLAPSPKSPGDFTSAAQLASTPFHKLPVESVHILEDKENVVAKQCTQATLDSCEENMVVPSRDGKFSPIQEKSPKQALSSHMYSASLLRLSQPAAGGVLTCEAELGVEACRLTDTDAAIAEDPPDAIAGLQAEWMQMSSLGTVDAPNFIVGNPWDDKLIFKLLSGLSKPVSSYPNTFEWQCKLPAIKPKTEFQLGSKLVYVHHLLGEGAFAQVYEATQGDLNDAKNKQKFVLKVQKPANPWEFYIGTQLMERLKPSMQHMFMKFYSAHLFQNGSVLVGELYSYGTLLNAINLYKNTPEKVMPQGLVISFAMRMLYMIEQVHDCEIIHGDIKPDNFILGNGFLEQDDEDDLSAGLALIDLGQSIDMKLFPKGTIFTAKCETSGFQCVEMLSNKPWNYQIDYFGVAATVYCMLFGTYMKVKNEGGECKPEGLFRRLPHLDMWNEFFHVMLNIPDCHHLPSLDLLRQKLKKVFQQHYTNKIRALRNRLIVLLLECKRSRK
Sequence of NADH dehydrogenase [ubiquinone] 1 alpha subcomplex subunit 13 (Q9P0J0 whole entry, one chain of several): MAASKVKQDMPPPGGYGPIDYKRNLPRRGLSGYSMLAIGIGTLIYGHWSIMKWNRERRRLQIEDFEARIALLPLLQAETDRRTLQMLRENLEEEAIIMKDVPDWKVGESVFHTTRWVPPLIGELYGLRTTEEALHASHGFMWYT
Sequence of Protein-tyrosine kinase 2-beta (Q14289 whole entry): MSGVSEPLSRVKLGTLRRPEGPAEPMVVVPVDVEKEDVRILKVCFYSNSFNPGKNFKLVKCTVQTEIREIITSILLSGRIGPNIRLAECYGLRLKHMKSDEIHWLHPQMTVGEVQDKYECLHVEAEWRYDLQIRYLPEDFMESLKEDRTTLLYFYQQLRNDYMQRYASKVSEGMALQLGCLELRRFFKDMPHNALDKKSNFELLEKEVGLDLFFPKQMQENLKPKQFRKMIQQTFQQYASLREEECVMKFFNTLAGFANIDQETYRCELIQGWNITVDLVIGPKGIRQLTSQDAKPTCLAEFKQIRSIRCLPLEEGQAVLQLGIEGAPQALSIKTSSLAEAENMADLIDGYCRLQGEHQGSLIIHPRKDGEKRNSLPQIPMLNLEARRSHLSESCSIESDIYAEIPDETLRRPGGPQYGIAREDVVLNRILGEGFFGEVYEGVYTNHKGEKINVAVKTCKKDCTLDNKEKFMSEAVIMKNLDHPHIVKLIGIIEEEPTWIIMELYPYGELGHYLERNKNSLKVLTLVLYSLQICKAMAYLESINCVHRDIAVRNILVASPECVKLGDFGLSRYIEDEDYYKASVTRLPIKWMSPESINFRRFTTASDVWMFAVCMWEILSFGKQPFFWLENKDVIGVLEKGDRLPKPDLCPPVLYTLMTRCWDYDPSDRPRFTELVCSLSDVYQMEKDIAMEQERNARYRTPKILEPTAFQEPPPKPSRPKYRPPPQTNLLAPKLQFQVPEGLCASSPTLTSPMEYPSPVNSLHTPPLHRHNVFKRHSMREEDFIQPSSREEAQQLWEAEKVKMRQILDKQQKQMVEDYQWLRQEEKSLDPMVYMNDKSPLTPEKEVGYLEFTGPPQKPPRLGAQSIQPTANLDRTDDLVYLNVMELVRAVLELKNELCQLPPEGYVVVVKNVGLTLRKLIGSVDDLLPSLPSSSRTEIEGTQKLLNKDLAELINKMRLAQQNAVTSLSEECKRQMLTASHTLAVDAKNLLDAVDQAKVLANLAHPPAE
Sequence of Deoxycytidine kinase (P27707 whole entry): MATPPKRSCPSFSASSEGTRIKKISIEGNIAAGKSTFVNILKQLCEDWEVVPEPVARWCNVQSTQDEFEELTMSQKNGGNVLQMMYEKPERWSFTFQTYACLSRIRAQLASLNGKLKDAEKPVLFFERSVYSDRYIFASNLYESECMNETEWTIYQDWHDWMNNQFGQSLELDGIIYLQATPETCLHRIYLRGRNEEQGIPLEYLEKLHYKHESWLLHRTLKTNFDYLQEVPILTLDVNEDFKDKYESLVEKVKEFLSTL
Sequence of Serine/threonine-protein kinase 26 (Q9P289 whole entry): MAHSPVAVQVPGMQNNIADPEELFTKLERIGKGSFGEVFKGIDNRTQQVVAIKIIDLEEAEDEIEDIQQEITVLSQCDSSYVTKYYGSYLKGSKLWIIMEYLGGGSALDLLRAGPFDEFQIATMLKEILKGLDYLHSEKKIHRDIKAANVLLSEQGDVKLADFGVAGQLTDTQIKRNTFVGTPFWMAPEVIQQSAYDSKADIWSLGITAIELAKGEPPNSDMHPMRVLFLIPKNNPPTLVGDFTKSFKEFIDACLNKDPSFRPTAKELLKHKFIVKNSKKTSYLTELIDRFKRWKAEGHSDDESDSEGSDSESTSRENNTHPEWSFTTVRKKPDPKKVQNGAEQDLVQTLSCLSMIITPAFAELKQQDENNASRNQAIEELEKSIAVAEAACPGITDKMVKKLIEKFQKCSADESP
Sequence of RAC-alpha serine/threonine-protein kinase (P31749 whole entry): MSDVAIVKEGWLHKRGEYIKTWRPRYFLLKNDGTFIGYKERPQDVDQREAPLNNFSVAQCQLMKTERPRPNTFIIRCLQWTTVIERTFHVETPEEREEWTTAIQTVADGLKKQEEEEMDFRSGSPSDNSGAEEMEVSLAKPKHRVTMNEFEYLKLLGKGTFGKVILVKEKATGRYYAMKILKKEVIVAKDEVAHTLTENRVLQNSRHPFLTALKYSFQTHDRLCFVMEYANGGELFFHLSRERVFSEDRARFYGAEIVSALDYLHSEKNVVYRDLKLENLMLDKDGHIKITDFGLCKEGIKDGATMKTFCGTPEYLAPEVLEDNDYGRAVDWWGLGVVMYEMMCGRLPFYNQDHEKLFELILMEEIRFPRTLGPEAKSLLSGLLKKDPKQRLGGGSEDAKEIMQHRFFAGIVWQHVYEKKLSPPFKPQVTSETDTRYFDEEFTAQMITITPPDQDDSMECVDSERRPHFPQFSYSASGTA
Sequence of Ephrin type-A receptor 7 (Q15375 whole entry): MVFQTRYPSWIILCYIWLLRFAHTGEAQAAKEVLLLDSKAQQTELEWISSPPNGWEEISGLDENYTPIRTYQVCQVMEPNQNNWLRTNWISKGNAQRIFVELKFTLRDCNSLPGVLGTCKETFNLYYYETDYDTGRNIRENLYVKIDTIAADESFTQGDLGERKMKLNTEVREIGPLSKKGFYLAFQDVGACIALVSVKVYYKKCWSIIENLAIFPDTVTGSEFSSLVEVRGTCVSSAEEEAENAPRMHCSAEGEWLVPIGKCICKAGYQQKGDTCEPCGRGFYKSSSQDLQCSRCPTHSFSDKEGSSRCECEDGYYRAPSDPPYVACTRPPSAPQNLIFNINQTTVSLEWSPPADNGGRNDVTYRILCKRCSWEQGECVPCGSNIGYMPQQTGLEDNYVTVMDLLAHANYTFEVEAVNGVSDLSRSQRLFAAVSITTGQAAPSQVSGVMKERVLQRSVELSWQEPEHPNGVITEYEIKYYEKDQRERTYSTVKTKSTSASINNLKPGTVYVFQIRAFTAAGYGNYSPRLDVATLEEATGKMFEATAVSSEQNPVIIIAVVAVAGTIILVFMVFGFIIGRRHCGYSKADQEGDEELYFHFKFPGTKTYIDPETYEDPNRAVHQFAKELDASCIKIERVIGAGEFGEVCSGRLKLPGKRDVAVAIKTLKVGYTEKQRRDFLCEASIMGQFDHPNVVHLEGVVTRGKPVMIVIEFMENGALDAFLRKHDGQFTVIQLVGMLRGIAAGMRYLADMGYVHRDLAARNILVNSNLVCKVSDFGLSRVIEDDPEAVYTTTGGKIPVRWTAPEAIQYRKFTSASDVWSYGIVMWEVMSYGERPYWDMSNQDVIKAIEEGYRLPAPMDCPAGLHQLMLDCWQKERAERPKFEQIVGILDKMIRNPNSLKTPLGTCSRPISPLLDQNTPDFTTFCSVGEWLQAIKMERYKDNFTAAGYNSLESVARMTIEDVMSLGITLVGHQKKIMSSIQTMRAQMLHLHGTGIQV
Sequence of Receptor-interacting serine/threonine-protein kinase 3 (Q9Y572 whole entry): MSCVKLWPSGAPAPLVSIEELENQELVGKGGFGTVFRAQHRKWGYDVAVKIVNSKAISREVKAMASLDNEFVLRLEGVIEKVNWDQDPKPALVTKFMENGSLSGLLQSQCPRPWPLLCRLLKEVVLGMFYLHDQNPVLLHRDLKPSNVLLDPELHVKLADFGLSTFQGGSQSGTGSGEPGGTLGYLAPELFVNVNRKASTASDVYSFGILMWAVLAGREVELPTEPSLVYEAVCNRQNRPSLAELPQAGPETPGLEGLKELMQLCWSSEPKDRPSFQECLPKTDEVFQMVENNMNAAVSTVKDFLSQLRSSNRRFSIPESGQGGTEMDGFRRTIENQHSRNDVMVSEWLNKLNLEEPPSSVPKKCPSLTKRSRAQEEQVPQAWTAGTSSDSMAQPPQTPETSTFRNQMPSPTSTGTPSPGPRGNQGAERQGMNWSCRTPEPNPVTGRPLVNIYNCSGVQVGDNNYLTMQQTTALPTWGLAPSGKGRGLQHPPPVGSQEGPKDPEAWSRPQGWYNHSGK

For orientation: Kd means a measure of binding affinity in units of concentration. Turning to `S=C(NCc1ccc2c(c1)OCO2)N1CCN(c2ncnc3c2oc2ccccc23)CC1` [AMUVATINIB], the Kd (in [1]; in experiment [2]; at Aurora kinase B; in [3]; in [4]; on Deoxycytidine kinase) was > 30 µM (inactive) throughout. In addition, the Kd (in experiment [5]; at Ephrin type-A receptor 7; in experiment [6]; in experiment [7]; in experiment [8]; in experiment [9]) was > 30 µM (inactive) each time. In addition, the Kd in experiment [10] and in [11] was > 30 µM (inactive) throughout.

Regarding `O[C@H]1CC[C@H](Nc2ncc3nc(Nc4c(F)cc(F)cc4F)n([C@H]4CCOC4)c3n2)CC1` [TANZISERTIB], the Kd (in experiment [12]; in experiment [1]; in experiment [2]; at Aurora kinase B; in [3]; in [4]) was > 30 µM (inactive) throughout. Also, the Kd on Deoxycytidine kinase was > 30 µM (inactive); in experiment [5] it was 0.156 µM (active); on Ephrin type-A receptor 7, > 30 µM (inactive); in experiment [6] it was > 30 µM (inactive); in experiment [7] it was > 30 µM (inactive); in [8] it was > 30 µM (inactive). Further, the Kd in experiment [9], in [10] and in [11] was > 30 µM (inactive) each time.

Turning to `COc1cccc2cc(-c3nc([C@H]4CC[C@H](C(=O)O)CC4)n4ncnc(N)c34)[nH]c12` [OSI-027], the Kd (in experiment [12]; in [1]; in experiment [2]; at Aurora kinase B; in experiment [3]; in [4]) was > 30 µM (inactive) throughout. Also, the Kd (at Deoxycytidine kinase; in experiment [5]; on Ephrin type-A receptor 7; in experiment [6]; in experiment [7]; in experiment [8]) was > 30 µM (inactive) each time. The Kd in experiment [9], in [10] and in experiment [11] was > 30 µM (inactive) in each case.

`O=c1[nH]c([C@@H]2CCCN2)nc2c1oc1ccc(Cl)cc12`: the Kd (in experiment [12]; in experiment [1]; in experiment [2]; on Aurora kinase B; in experiment [3]; in [4]) was > 30 µM (inactive) each time. In addition, the Kd (on Deoxycytidine kinase; in [5]; on Ephrin type-A receptor 7; in [6]; in experiment [7]; in experiment [8]) was > 30 µM (inactive) throughout. Besides, the Kd in experiment [9], in [10] and in [11] was > 30 µM (inactive) in each case.

For `c1cc(OCCN2CCCCC2)cc(-c2n[nH]c3ccc(-c4nc[nH]n4)cc23)c1` [CC-401], the Kd (in [12]; in [1]; in experiment [2]; at Aurora kinase B; in experiment [3]; in [4]) was > 30 µM (inactive) throughout. Further, the Kd on Deoxycytidine kinase is > 30 µM (inactive); in [5], 1.46 µM (active); at Ephrin type-A receptor 7, > 30 µM (inactive); in [6], > 30 µM (inactive); in experiment [7], > 30 µM (inactive); in experiment [8], > 30 µM (inactive). Further, the Kd in experiment [9], in [10] and in [11] was > 30 µM (inactive) in each case.

As to `Cn1c(=O)c(F)c(Nc2ccc(I)cc2F)c2c(=O)n(C[C@@H](O)CO)cnc21` [TAK-733], the Kd (in [12]; in [1]; in experiment [2]; on Aurora kinase B; in experiment [3]; in experiment [4]) was > 30 µM (inactive) in each case. In addition, the Kd (on Deoxycytidine kinase; in experiment [5]; on Ephrin type-A receptor 7; in experiment [6]; in experiment [8]; in experiment [9]) was > 30 µM (inactive) each time. In addition, the Kd in experiment [10] and in experiment [11] was > 30 µM (inactive) throughout.

Consider `Cc1c(NC(=O)OC[C@@H]2COCCN2)cn2ncnc(Nc3ccc4c(cnn4Cc4cccc(F)c4)c3)c12` [AC-480], for which the Kd (in experiment [12]; in experiment [1]; in [2]; at Aurora kinase B; in experiment [3]; in experiment [4]) was > 30 µM (inactive) throughout. Also, the Kd (at Deoxycytidine kinase; in experiment [5]; on Ephrin type-A receptor 7; in experiment [6]; in experiment [8]; in [9]) was > 30 µM (inactive) throughout. The Kd in experiment [10] and in experiment [11] was > 30 µM (inactive) throughout.
